# Test system: HIV-1 (H9IIIB strain)
# Assay: Cell-based HIV infection assay using a reporter (Cell-Based), MT4-GFP cells
# Conditions: Human immunodeficiency virus 1, MT4-GFP cells infected with HIV-1 H9IIIB; 50% normal human serum; mean of at least two independent experiments; read-out: Cell-based IP
# Summary of the method: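 MT4-GFP cells (HIV LTR-driven GFP) infected 24 h with HIV-1 H9IIIB at low MOI, then washed and plated with compounds in RPMI + 50% normal human serum, 0.4% DMSO final. Green cells counted at 24 and 48 h; R0 = 48 h/24 h ratio, inhibition normalized to DMSO and triple-drug control; IC50 from 4-parameter fit.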
row,SMILES,IC50
1,"COC(=O)N[C@H](C(=O)Nc1cccc(F)c1CC[C@H]1CNC[C@H](C)N1S(=O)(=O)c1ccc(OC(F)(F)F)cc1)[C@@H](Cc1ccc(F)cc1)c1ccc(Cl)cc1 [Example 221, (βS)-4-chloro-β-(4-fluorobenzyl)-N-(3-fluoro-2-{2-[(2S,6S)-6-methyl-1-{[4-(trifluoromethoxy)phenyl]sulfonyl}piperazin-2-yl]ethyl}phenyl)-Nα-(methoxycarbonyl)-L-phenylalaninamide]",230 nM
2,"COC(=O)N[C@H](C(=O)Nc1cccc(F)c1CC[C@H]1CNCC(COC(C)C)N1S(C)(=O)=O)[C@H](c1cccc(F)c1)c1cccc(Cl)c1 (stereo partly drawn) [Example 222, (βR)-β-(3-chlorophenyl)-3-fluoro-N-(3-fluoro-2-{2-[(2S)-6-[(1-methylethoxy)methyl]-1-(methylsulfonyl)piperazin-2-yl]ethyl}phenyl)-Nα-(methoxycarbonyl)-L-phenylalaninamide]",76 nM
3,"C[C@H]1CNC[C@H](CCc2c(F)cccc2NC(=O)[C@@H](N)[C@@H](c2ccc(F)cc2)c2cc(F)cc(F)c2)N1S(=O)(=O)C1CC1 [Example 223, (βS)-N-(2-{2-[(2S,6S)-1-(cyclopropylsulfonyl)-6-methylpiperazin-2-yl]ethyl}-3-fluorophenyl)-β-(3,5-difluorophenyl)-4-fluoro-L-phenylalaninamide]",36 nM
4,"CC[C@H]1CNC[C@H](CCc2c(F)cccc2NC(=O)[C@@H](N)[C@@H](c2ccc(Cl)cc2)C2CCOCC2)N1S(C)(=O)=O [Example 224, (βR)-4-chloro-N-(2-{2-[(2S,6S)-6-ethyl-1-(methylsulfonyl)piperazin-2-yl]ethyl}-3-fluorophenyl)-β-(tetrahydro-2H-pyran-4-yl)-L-phenylalaninamide]",90 nM
5,"CC[C@H]1CNC[C@H](CCc2c(F)cccc2NC(=O)[C@@H](NC(=O)OC)[C@@H](c2ccc(Cl)cc2)C2CCOCC2)N1S(C)(=O)=O [Example 225, (βR)-4-chloro-N-(2-{2-[(2S,6S)-6-ethyl-1-(methylsulfonyl)piperazin-2-yl]ethyl}-3-fluorophenyl)-Nα-(methoxycarbonyl)-β-(tetrahydro-2H-pyran-4-yl)-L-phenylalaninamide]",23 nM
6,"CS(=O)(=O)N1C(COCc2ccccc2)CNC[C@@H]1CCc1c(F)cccc1NC(=O)[C@@H](N)[C@@H](Cc1ccc(F)cc1)c1ccc(Cl)cc1 (stereo partly drawn) [Example 226, (βS)-N-(2-{2-[(2S)-6-[(benzyloxy)methyl]-1-(methylsulfonyl)piperazin-2-yl]ethyl}-3-fluorophenyl)-4-chloro-β-(4-fluorobenzyl)-L-phenylalaninamide]",1100 nM
7,"C[C@@H]1CNC[C@H](CCc2c(F)cncc2NC(=O)[C@@H](N)[C@@H](c2ccc(F)cc2)c2cc(F)cc(F)c2)N1S(=O)(=O)c1ccc(OC(F)(F)F)cc1 [Example 227, (βS)-β-(3,5-difluorophenyl)-4-fluoro-N-(5-fluoro-4-{2-[(2S,6R)-6-methyl-1-{[4-(trifluoromethoxy)phenyl]sulfonyl}piperazin-2-yl]ethyl}pyridin-3-yl)-L-phenylalaninamide]",23 nM
8,"C[C@H]1CNC[C@H](CCc2c(F)cccc2NC(=O)[C@@H](N)[C@@H](c2ccc(F)cc2)c2cc(F)cc(F)c2)N1S(=O)(=O)c1ccccc1Cl [Example 229, (βS)-N-[2-(2-{(2S,6S)-1-[(2-chlorophenyl)sulfonyl]-6-methylpiperazin-2-yl}ethyl)-3-fluorophenyl]-β-(3,5-difluorophenyl)-4-fluoro-L-phenylalaninamide]",350 nM
9,"C[C@@H]1CNC[C@H](CCc2c(F)cccc2NC(=O)[C@@H](N)[C@@H](c2ccc(F)cc2)c2cc(F)cc(F)c2)N1S(=O)(=O)c1ccccc1Cl [Example 230, (βS)-N-[2-(2-{(2S,6R)-1-[(2-chlorophenyl)sulfonyl]-6-methylpiperazin-2-yl}ethyl)-3-fluorophenyl]-β-(3,5-difluorophenyl)-4-fluoro-L-phenylalaninamide]",290 nM
10,"COC(=O)N[C@H](C(=O)Nc1cccc(F)c1CC[C@H]1CNC[C@H](C)N1S(=O)(=O)c1ccccc1Cl)[C@@H](c1ccc(F)cc1)c1cc(F)cc(F)c1 [Example 231, (βS)-N-[2-(2-{(2S,6S)-1-[(2-chlorophenyl)sulfonyl]-6-methylpiperazin-2-yl}ethyl)-3-fluorophenyl]-β-(3,5-difluorophenyl)-4-fluoro-Nα-(methoxycarbonyl)-L-phenylalaninamide]",230 nM
11,"COC(=O)N[C@H](C(=O)Nc1cccc(F)c1CC[C@H]1CNC[C@@H](C)N1S(=O)(=O)c1ccccc1Cl)[C@@H](c1ccc(F)cc1)c1cc(F)cc(F)c1 [Example 232, (βS)-N-[2-(2-{(2S,6R)-1-[(2-chlorophenyl)sulfonyl]-6-methylpiperazin-2-yl}ethyl)-3-fluorophenyl]-β-(3,5-difluorophenyl)-4-fluoro-Nα-(methoxycarbonyl)-L-phenylalaninamide]",190 nM
12,"COC(=O)N[C@H](C(=O)Nc1cccc(F)c1CC[C@H]1CNC[C@H](C)N1S(C)(=O)=O)[C@@H](Cc1ccc(F)cc1)c1ccc(Cl)cc1 [Example 233, (βS)-4-chloro-β-(4-fluorobenzyl)-N-(3-fluoro-2-{2-[(2S,6S)-6-methyl-1-(methylsulfonyl)piperazin-2-yl]ethyl}phenyl)-Nα-(methoxycarbonyl)-L-phenylalaninamide]",330 nM
13,"COC(=O)N[C@H](C(=O)Nc1cccc(F)c1CC[C@H]1CNC[C@H](C)N1S(=O)(=O)c1ccc(OC(F)(F)F)cc1)[C@@H](c1ccc(F)cc1)c1cc(F)cc(F)c1 [Example 234, (βS)-β-(3,5-difluorophenyl)-4-fluoro-N-(3-fluoro-2-{2-[(2S,6S)-6-methyl-1-{[4-(trifluoromethoxy)phenyl]sulfonyl}piperazin-2-yl]ethyl}phenyl)-Nα-(methoxycarbonyl)-L-phenylalaninamide]",49 nM
14,"COc1ccccc1S(=O)(=O)N1[C@@H](CCc2c(F)cncc2NC(=O)[C@@H](N)[C@@H](c2ccc(F)cc2)c2cc(F)cc(F)c2)CNC[C@@H]1C [Example 235, (βS)-β-(3,5-difluorophenyl)-4-fluoro-N-[5-fluoro-4-(2-{(2S,6S)-1-[(2-methoxyphenyl)sulfonyl]-6-methylpiperazin-2-yl}ethyl)pyridin-3-yl]-L-phenylalaninamide]",23 nM
15,"C[C@H]1CNC[C@H](CCc2c(F)cccc2NC(=O)[C@@H](N)[C@@H](c2ccc(Cl)cc2)c2cncc(F)c2)N1S(=O)(=O)c1ccccc1 [Example 236, (βS)-4-chloro-N-(3-fluoro-2-{2-[(2S,6S)-6-methyl-1-(phenylsulfonyl)piperazin-2-yl]ethyl}phenyl)-β-(5-fluoropyridin-3-yl)-L-phenylalaninamide]",8.2 nM

# Same assay, conditions: MT4-GFP cells infected with HIV-1 H9IIIB; 50% normal human serum; mean of at least two independent experiments; read-out: Cell-based IP
row,SMILES,IC50
1,"CC(C)OCC1CNC[C@H](CCc2c(F)cccc2NC(=O)[C@@H](N)[C@@H](c2ccc(F)cc2)c2cc(F)cc(F)c2)N1S(=O)(=O)C1CC1 (stereo partly drawn) [Example 228, (βS)-N-[2-(2-{(2S)-1-(cyclopropylsulfonyl)-6-[(1-methylethoxy)methyl]piperazin-2-yl}ethyl)-3-fluorophenyl]-β-(3,5-difluorophenyl)-4-fluoro-L-phenylalaninamide]",15 nM

# — patent publication US9840478B2 (MERCK SHARP & DOHME CORP., priority 2013, dated 2017)
